Biological target: T1, EI^Ntr (Escherichia coli, UniProt P37177)
T1 sequence (P37177 1-748): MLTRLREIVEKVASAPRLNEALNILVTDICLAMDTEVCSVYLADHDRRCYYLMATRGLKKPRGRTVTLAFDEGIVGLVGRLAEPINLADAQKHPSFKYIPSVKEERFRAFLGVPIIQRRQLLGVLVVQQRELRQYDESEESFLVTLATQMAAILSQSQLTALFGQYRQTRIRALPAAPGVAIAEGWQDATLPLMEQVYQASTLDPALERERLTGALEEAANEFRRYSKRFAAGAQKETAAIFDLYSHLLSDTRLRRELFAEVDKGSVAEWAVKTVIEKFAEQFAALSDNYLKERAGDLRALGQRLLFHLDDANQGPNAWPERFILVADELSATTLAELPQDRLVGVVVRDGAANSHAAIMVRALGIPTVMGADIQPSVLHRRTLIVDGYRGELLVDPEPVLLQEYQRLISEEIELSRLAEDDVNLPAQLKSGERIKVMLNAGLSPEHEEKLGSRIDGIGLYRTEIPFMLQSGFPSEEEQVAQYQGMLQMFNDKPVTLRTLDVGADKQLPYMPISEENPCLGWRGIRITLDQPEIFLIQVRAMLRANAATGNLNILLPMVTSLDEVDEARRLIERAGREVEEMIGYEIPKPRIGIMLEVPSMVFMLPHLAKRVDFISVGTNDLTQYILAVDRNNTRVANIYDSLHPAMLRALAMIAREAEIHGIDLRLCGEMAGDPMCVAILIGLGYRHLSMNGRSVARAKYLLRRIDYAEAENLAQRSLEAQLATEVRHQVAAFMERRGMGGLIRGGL
Assay: intrinsic tryptophan fluorescence quenching
Assay type: binding

Kd [µM] | SMILES
700 | NC(=O)CC[C@H](N)C(=O)O [glutamine]
3300 | O=C(O)CCC(=O)C(=O)O [α-ketoglutarate]

— article PMC3633653 (Molecular microbiology, 2013)
